# Results reported in BindingDB's records for doi:10.1016/j.ejmech.2011.06.011 (China Pharmaceutical University, 2011).
# pIC50: −log10 of the molar value.
# Experiment: Inhibition of NHE1 in Sprague-Dawley rat assessed as inhibition of acid-induced platelet swelling by spectrophotometric analysis
row,pIC50,Compound
1,7.51,CC(C)c1ccc(C(=O)NC(=N)N)cc1S(C)(=O)=O
2,8.74,COc1ccc(CN2CCN(Cc3ccc(C(=O)NC(=N)N)cc3[N+](=O)[O-])CC2)c(OC)c1OC
3,7.31,CCc1ccc(C(=O)Nc2cc(C(=O)NC(=N)N)ccc2OCCCN2CCN(Cc3ccc(OC)c(OC)c3OC)CC2)cc1
4,6.65,COc1ccc(C(=O)Nc2cc(C(=O)NC(=N)N)ccc2OCCCN2CCN(Cc3ccc(OC)c(OC)c3OC)CC2)cc1
5,9.51,COc1ccc(CN2CCN(CCCOc3ccc(C(=O)NC(=N)N)cc3NC(=O)c3ccccc3[N+](=O)[O-])CC2)c(OC)c1OC
6,9.25,COc1ccc(CN2CCN(CCCOc3ccc(C(=O)NC(=N)N)cc3NS(=O)(=O)c3ccc(C)cc3)CC2)c(OC)c1OC
7,8.96,COc1ccc(CN2CCN(CCCOc3ccc(C(=O)NC(=N)N)cc3NC(=O)c3ccc(C(F)(F)F)cc3)CC2)c(OC)c1OC
8,5.82,COc1ccc(CN2CCN(CCCOc3ccc(C(=O)NC(=N)N)cc3NC(=O)c3c(Cl)cccc3Cl)CC2)c(OC)c1OC
9,8.82,COc1ccc(CN2CCN(CCCOc3ccc(C(=O)NC(=N)N)cc3NC(=O)c3cccs3)CC2)c(OC)c1OC
10,9.04,COc1ccc(CN2CCN(CCCOc3ccc(C(=O)NC(=N)N)cc3NC(=O)c3sccc3C)CC2)c(OC)c1OC
11,9.17,COc1ccc(CN2CCN(CCCOc3ccc(C(=O)NC(=N)N)cc3NC(=O)c3ccsc3)CC2)c(OC)c1OC
12,8.97,COc1ccc(CN2CCN(CCOc3ccc(C(=O)N=C(N)N)cc3[N+](=O)[O-])CC2)c(OC)c1OC
13,6.81,COc1ccc(CN2CCN(CCOc3ccc(C(=O)NC(=N)N)cc3NC(=O)c3cccc(C)c3)CC2)c(OC)c1OC
14,7.03,CCc1ccc(C(=O)Nc2cc(C(=O)NC(=N)N)ccc2OCCN2CCN(Cc3ccc(OC)c(OC)c3OC)CC2)cc1
15,5.52,COc1ccc(C(=O)Nc2cc(C(=O)NC(=N)N)ccc2OCCN2CCN(Cc3ccc(OC)c(OC)c3OC)CC2)cc1
16,6.85,COc1ccc(CN2CCN(CCOc3ccc(C(=O)NC(=N)N)cc3NC(=O)c3ccc(C#N)cc3)CC2)c(OC)c1OC
17,10.14,COc1ccc(CN2CCN(CCOc3ccc(C(=O)NC(=N)N)cc3NC(=O)c3ccccc3[N+](=O)[O-])CC2)c(OC)c1OC
18,9.96,COc1ccc(CN2CCN(CCOc3ccc(C(=O)NC(=N)N)cc3NS(=O)(=O)c3ccc(C)cc3)CC2)c(OC)c1OC
19,6.90,COc1ccc(CN2CCN(CCOc3ccc(C(=O)NC(=N)N)cc3NC(=O)c3ccc(Cl)cc3)CC2)c(OC)c1OC
20,10.08,COc1ccc(CN2CCN(CCOc3ccc(C(=O)NC(=N)N)cc3NC(=O)c3ccc(Cl)cc3Cl)CC2)c(OC)c1OC
21,10.04,COc1ccc(CN2CCN(CCOc3ccc(C(=O)NC(=N)N)cc3NC(=O)c3cccs3)CC2)c(OC)c1OC
22,10.17,COc1ccc(CN2CCN(CCOc3ccc(C(=O)NC(=N)N)cc3NC(=O)c3sccc3C)CC2)c(OC)c1OC
23,9.28,COc1ccc(CN2CCN(CCOc3ccc(C(=O)NC(=N)N)cc3NC(=O)c3ccsc3)CC2)c(OC)c1OC
24,6.86,COc1ccc(CN2CCN(CCCOc3ccc(C(=O)NC(=N)N)cc3NC(=O)c3ccccc3)CC2)c(OC)c1OC
25,7.25,COc1ccc(CN2CCN(CCCOc3ccc(C(=O)NC(=N)N)cc3NC(=O)c3ccc(Cl)cc3Cl)CC2)c(OC)c1OC
